Experimental findings from publication PMC3341389, “Spiroindolines Identify the Vesicular Acetylcholine Transporter as a Novel Target for Insecticide Action” (PLoS ONE, 2012) are described below.

In assay [1] the target is T1, D. melanogaster VAChT (Drosophila melanogaster, UniProt O17444).
T1 construct: full-length gene cloned by PCR from adult fly cDNA library, Gateway vector, expressed in PC12 cells (rat)
T1 sequence (O17444 1-578): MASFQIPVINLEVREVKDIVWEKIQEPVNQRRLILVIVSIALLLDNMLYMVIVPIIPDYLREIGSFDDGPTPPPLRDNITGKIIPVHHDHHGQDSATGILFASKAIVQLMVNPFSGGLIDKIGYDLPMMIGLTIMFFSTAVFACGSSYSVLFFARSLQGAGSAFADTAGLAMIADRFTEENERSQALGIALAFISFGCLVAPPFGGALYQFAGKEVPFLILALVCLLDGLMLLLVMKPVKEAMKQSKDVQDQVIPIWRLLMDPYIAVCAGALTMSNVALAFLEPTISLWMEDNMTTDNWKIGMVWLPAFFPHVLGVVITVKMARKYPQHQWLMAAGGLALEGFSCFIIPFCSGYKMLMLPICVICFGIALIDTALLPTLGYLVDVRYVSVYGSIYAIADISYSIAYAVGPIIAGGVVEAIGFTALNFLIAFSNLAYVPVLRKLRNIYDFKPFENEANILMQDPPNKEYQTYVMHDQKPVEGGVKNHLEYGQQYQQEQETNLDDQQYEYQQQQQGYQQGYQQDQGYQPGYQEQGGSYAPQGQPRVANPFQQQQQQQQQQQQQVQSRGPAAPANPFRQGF
Put plainly: displacement of [3H]-SYN876 from membranes of PC12 cells expressing VAChT. In kind it is binding. The note with it: competition with [3H]-SYN876.

The target of assay [2] is T1, D. melanogaster VAChT. Put plainly: inhibition of vesicular acetylcholine uptake, PNS from PC12 cells expressing VAChT. In kind it is biochemical. The conditions noted are these: substrate acetylcholine.
Assay [3] has as its target T1, D. melanogaster VAChT. Put plainly: [3H]-SYN876 saturation binding to membranes of PC12 cells expressing VAChT.

Take `OC1CCCCC1N1CCC(c2ccccc2)CC1` (stereo not shown) [vesamicol]: the IC50 entry at D. melanogaster VAChT [1] is “displaced by the known VAChT inhibitors vesamicol and aminobenzovesamicol (table S3)”.
Regarding `O=C(c1ccnc(Cl)c1)N1CC2(CCN(C/C=C/c3ccc(Cl)cc3)CC2)c2cc(F)ccc21` [SYN876], the IC50 result against D. melanogaster VAChT [2] is reported as “Inhibition of the acetylcholine transport activity of PNS from the cells”. This molecule displayed a dissociation constant Kd on D. melanogaster VAChT [3] of 0.04 nM.
As to `Nc1cccc2c1CC(N1CCC(c3ccccc3)CC1)C(O)C2` (stereo not shown) [aminobenzovesamicol], the IC50 result on D. melanogaster VAChT [1] is “displaced by the known VAChT inhibitors vesamicol and aminobenzovesamicol (table S3)”.
